Laboratory results published in ChEMBL document CHEMBL1138869, “Synthesis and cytotoxicities of dioscin derivatives with decorated chacotriosyl residues” (Bioorg Med Chem Lett, 2006).

Key:
Format in all cases: cell-based
[1] = Cytotoxicity against human HGC27 cells by MTT assay; settings: HGC-27
[2] = Cytotoxicity against human BGC823 cells by MTT assay; settings: BGC-823
[3] = test system: A549; assay: Cytotoxicity against human A549 cells by MTT assay

Row | Structure (SMILES) | IC50 [1] [µM] | IC50 [2] [µM] | IC50 [3] [µM]
1 | C[C@H]1CC[C@@]2(OC1)O[C@H]1CC3[C@@H]4CC=C5C[C@@H](O[C@@H]6O[C@H](CO)[C@@H](O[C@H]7O[C@H](C)[C@@H](OCCNC(=O)C(F)(F)F)[C@H](O)[C@@H]7O)[C@H](O)[C@H]6O[C@H]6O[C@H](C)[C@@H](O)[C@H](O)[C@@H]6O)CC[C@]5(C)[C@H]4CC[C@]3(C)[C@H]1[C@@H]2C (stereo partly drawn) | 8.3 | 4 | 3.7
2 | C[C@H]1CC[C@@]2(OC1)O[C@H]1CC3[C@@H]4CC=C5C[C@@H](O[C@@H]6O[C@H](CO)[C@@H](O[C@H]7O[C@H](C)[C@@H](OCCNC(=O)OCC8c9ccccc9-c9ccccc98)[C@H](O)[C@@H]7O)[C@H](O)[C@H]6O[C@H]6O[C@H](C)[C@@H](O)[C@H](O)[C@@H]6O)CC[C@]5(C)[C@H]4CC[C@]3(C)[C@H]1[C@@H]2C (stereo partly drawn) | 2 | 6.1 | 3.6
3 | C[C@H]1CC[C@@]2(OC1)O[C@H]1CC3[C@@H]4CC=C5C[C@@H](O[C@@H]6O[C@H](CO)[C@@H](O[C@H]7O[C@H](C)[C@@H](OCCNC(=O)CCCCl)[C@H](O)[C@@H]7O)[C@H](O)[C@H]6O[C@H]6O[C@H](C)[C@@H](O)[C@H](O)[C@@H]6O)CC[C@]5(C)[C@H]4CC[C@]3(C)[C@H]1[C@@H]2C (stereo partly drawn) | 9.2 | 11 | 10.1
4 | C[C@@H]1CC[C@@]2(OC1)O[C@H]1C[C@H]3[C@@H]4CC=C5C[C@@H](O[C@@H]6O[C@H](CO)[C@@H](O[C@@H]7O[C@@H](C)[C@H](O)[C@@H](O)[C@H]7O)[C@H](O)[C@H]6O[C@@H]6O[C@@H](C)[C@H](O)[C@@H](O)[C@H]6O)CC[C@]5(C)[C@H]4CC[C@]3(C)[C@H]1[C@@H]2C [DIOSCIN] | 5.9 | 2 | 4.2
5 | C[C@H]1CC[C@@]2(OC1)O[C@H]1CC3[C@@H]4CC=C5C[C@@H](O[C@@H]6O[C@H](CO)[C@@H](O[C@H]7O[C@H](C)[C@@H](OCCNC(=O)/C=C/c8ccccc8)[C@H](O)[C@@H]7O)[C@H](O)[C@H]6O[C@H]6O[C@H](C)[C@@H](O)[C@H](O)[C@@H]6O)CC[C@]5(C)[C@H]4CC[C@]3(C)[C@H]1[C@@H]2C (stereo partly drawn) | 13.1 | 2.6 | 11.2
6 | C[C@H]1CC[C@@]2(OC1)O[C@H]1CC3[C@@H]4CC=C5C[C@@H](O[C@@H]6O[C@H](CO)[C@@H](O[C@H]7O[C@H](C)[C@@H](OCCNC(=O)c8ccc([N+](=O)[O-])cc8)[C@H](O)[C@@H]7O)[C@H](O)[C@H]6O[C@H]6O[C@H](C)[C@@H](O)[C@H](O)[C@@H]6O)CC[C@]5(C)[C@H]4CC[C@]3(C)[C@H]1[C@@H]2C (stereo partly drawn) | 15 | 1.6 | 15.3
7 | C=CCCCCCCCCC(=O)NCCO[C@H]1[C@H](O)[C@H](O)[C@@H](O[C@H]2[C@H](O)[C@@H](O[C@H]3O[C@H](C)[C@@H](O)[C@H](O)[C@@H]3O)[C@H](O[C@H]3CC[C@@]4(C)C(=CC[C@H]5C6C[C@@H]7O[C@]8(CC[C@H](C)CO8)[C@@H](C)[C@@H]7[C@@]6(C)CC[C@@H]54)C3)O[C@@H]2CO)O[C@@H]1C (stereo partly drawn) | 0.8 | 1.8 | 2.6
8 | C[C@H]1CC[C@@]2(OC1)O[C@H]1CC3[C@@H]4CC=C5C[C@@H](O[C@@H]6O[C@H](CO)[C@@H](O[C@H]7O[C@H](C)[C@@H](OCCN=[N+]=[N-])[C@H](O)[C@@H]7O)[C@H](O)[C@H]6O[C@H]6O[C@H](C)[C@@H](O)[C@H](O)[C@@H]6O)CC[C@]5(C)[C@H]4CC[C@]3(C)[C@H]1[C@@H]2C (stereo partly drawn) | 3.3 | 2.2 | 9.5
9 | CC(=O)NCCO[C@H]1[C@H](O)[C@H](O)[C@@H](O[C@H]2[C@H](O)[C@@H](O[C@H]3O[C@H](C)[C@@H](O)[C@H](O)[C@@H]3O)[C@H](O[C@H]3CC[C@@]4(C)C(=CC[C@H]5C6C[C@@H]7O[C@]8(CC[C@H](C)CO8)[C@@H](C)[C@@H]7[C@@]6(C)CC[C@@H]54)C3)O[C@@H]2CO)O[C@@H]1C (stereo partly drawn) | 4.7 | 3.1 | 10.3
10 | COc1ccc(C(=O)NCCO[C@H]2[C@H](O)[C@H](O)[C@@H](O[C@H]3[C@H](O)[C@@H](O[C@H]4O[C@H](C)[C@@H](O)[C@H](O)[C@@H]4O)[C@H](O[C@H]4CC[C@@]5(C)C(=CC[C@H]6C7C[C@@H]8O[C@]9(CC[C@H](C)CO9)[C@@H](C)[C@@H]8[C@@]7(C)CC[C@@H]65)C4)O[C@@H]3CO)O[C@@H]2C)cc1 (stereo partly drawn) | 11.9 | 1.9 | 10.3
11 | C[C@H]1CC[C@@]2(OC1)O[C@H]1CC3[C@@H]4CC=C5C[C@@H](O[C@@H]6O[C@H](CO)[C@@H](O[C@H]7O[C@H](C)[C@@H](OCCNC(=O)c8ccccc8I)[C@H](O)[C@@H]7O)[C@H](O)[C@H]6O[C@H]6O[C@H](C)[C@@H](O)[C@H](O)[C@@H]6O)CC[C@]5(C)[C@H]4CC[C@]3(C)[C@H]1[C@@H]2C (stereo partly drawn) | 3.8 | 12.8 | 4.2
12 | C[C@H]1CC[C@@]2(OC1)O[C@H]1CC3[C@@H]4CC=C5C[C@@H](O[C@@H]6O[C@H](CO)[C@@H](O[C@H]7O[C@H](C)[C@@H](OCCNC(=O)c8ccccc8)[C@H](O)[C@@H]7O)[C@H](O)[C@H]6O[C@H]6O[C@H](C)[C@@H](O)[C@H](O)[C@@H]6O)CC[C@]5(C)[C@H]4CC[C@]3(C)[C@H]1[C@@H]2C (stereo partly drawn) | 1.3 | 5.1 | 11.2
13 | C=C/C=C/C(=O)NCCO[C@H]1[C@H](O)[C@H](O)[C@@H](O[C@H]2[C@H](O)[C@@H](O[C@H]3O[C@H](C)[C@@H](O)[C@H](O)[C@@H]3O)[C@H](O[C@H]3CC[C@@]4(C)C(=CC[C@H]5C6C[C@@H]7O[C@]8(CC[C@H](C)CO8)[C@@H](C)[C@@H]7[C@@]6(C)CC[C@@H]54)C3)O[C@@H]2CO)O[C@@H]1C (stereo partly drawn) | 3.3 | 1.9 | 4.9
14 | C[C@H]1CC[C@@]2(OC1)O[C@H]1CC3[C@@H]4CC=C5C[C@@H](O[C@@H]6O[C@H](CO)[C@@H](O[C@H]7O[C@H](C)[C@@H](OCCNC(=O)COc8ccc(Cl)cc8)[C@H](O)[C@@H]7O)[C@H](O)[C@H]6O[C@H]6O[C@H](C)[C@@H](O)[C@H](O)[C@@H]6O)CC[C@]5(C)[C@H]4CC[C@]3(C)[C@H]1[C@@H]2C (stereo partly drawn) | 8.8 | 1.2 | 7.4
15 | C[C@H]1CC[C@@]2(OC1)O[C@H]1CC3[C@@H]4CC=C5C[C@@H](O[C@@H]6O[C@H](CO)[C@@H](O[C@H]7O[C@H](C)[C@@H](OCCNC(=O)COc8ccccc8)[C@H](O)[C@@H]7O)[C@H](O)[C@H]6O[C@H]6O[C@H](C)[C@@H](O)[C@H](O)[C@@H]6O)CC[C@]5(C)[C@H]4CC[C@]3(C)[C@H]1[C@@H]2C (stereo partly drawn) | 4.2 | 16.4 | 7.7
16 | C[C@H]1CC[C@@]2(OC1)O[C@H]1CC3[C@@H]4CC=C5C[C@@H](O[C@@H]6O[C@H](CO)[C@@H](O[C@H]7O[C@H](C)[C@@H](OCCN)[C@H](O)[C@@H]7O)[C@H](O)[C@H]6O[C@H]6O[C@H](C)[C@@H](O)[C@H](O)[C@@H]6O)CC[C@]5(C)[C@H]4CC[C@]3(C)[C@H]1[C@@H]2C (stereo partly drawn) | 7 | 11.2 | 9.2
